Our source for the IC50, Activity and selectivity ratio values is ChEMBL document CHEMBL4431304, “Myritonines A-C, Alkaloids from Myrioneuron tonkinensis Based on a Novel Hexacyclic Skeleton” (J Nat Prod, 2016).

One series deals with HL-60. Kind of series: Cytotoxicity against human HL60 cells assessed as reduction in cell viability after 48 hrs by MTT assay. It is filed as functional, cell-based. The following applies: HL-60, 48 h. For orientation: Tetrazolium dyes change colour on reduction, which living cells bring about.
For a further series, the system named is SW480. Kind of series: Cytotoxicity against human SW480 cells assessed as reduction in cell viability after 48 hrs by MTT assay. It is filed as functional, cell-based. Conditions: SW480, 48 h.
A further series deals with SMMC-7721. Briefly: Cytotoxicity against human SMMC7721 cells assessed as reduction in cell viability after 48 hrs by MTT assay. It is filed as functional, cell-based. Conditions: SMMC-7721, 48 h.
The next series concerns MCF7. Briefly: Cytotoxicity against human MCF7 cells assessed as reduction in cell viability after 48 hrs by MTT assay. It is filed as functional, cell-based. Conditions: MCF7, 48 h.
The subject of a further series is A549. Briefly: Cytotoxicity against human A549 cells assessed as reduction in cell viability after 48 hrs by MTT assay. It is filed as functional, cell-based. Conditions: A549, 48 h.
A further series relates to Hepatitis C virus. Kind of series: Antiviral activity against HCV infected in human Huh7.5 cells assessed as decrease in viral RNA level after 72 hrs by RT-PCR method. It is filed as functional, organism-based. Conditions: Hepacivirus hominis.
Series [1] in a line: Therapeutic index, ratio of CC50 for human Huh7.5 cells to EC50 for Hepatitis C virus. It is filed as toxicity. Conditions: read-out: Ratio CC50/EC50.

Active and inactive are the calls of the source. The calls are words filed in the database; no cut-off is given here.

In the case of `N#C[C@@H]1N2CCC[C@H]3[C@@H]4CCCCN4[C@@H]4CC[C@H]5CCC[C@]1(O)[C@@H]5N4[C@@H]32`, the IC50 with HL-60, with SW480, in the series with SMMC-7721, in the series on MCF7 and in the series on A549 was more than 10 µM each time.

Turning to `C1C[C@H]2CC[C@H]3N4CCCC[C@H]4[C@@H]4CCCN5C[C@@H](C1)[C@H]2N3[C@@H]45`, the result with Hepatitis C virus was Active. Further, the IC50 in the series on HL-60, in the series on SW480, in the series on SMMC-7721, in the series on MCF7 and in the series on A549 was more than 10 µM in each case. Moreover, the selectivity ratio in series [1] was more than 12.

Regarding `O=C1[C@H]2CCC[C@H]3CC[C@H]4N5CCCC[C@H]5[C@@H]5CCCN1[C@H]5N4[C@@H]32`, the result in the series with Hepatitis C virus was Active. For the same molecule, the IC50 in the series on HL-60, in the series with SW480, in the series on SMMC-7721, in the series on MCF7 and with A549 was more than 10 µM each time. Also, in series [1], the selectivity ratio was more than 11.

In general, IC50 refers to the point on the concentration scale where inhibition reaches its midpoint.
